What all share (assay): NCI tumour cell line growth inhibition, 48 h
In assay [1] the test system is LOX IMVI.
Assay [2] relates to SNB-19.
The subject of assay [3] is SK-MEL-28.
Assay [4] has as its system SW-620.
Assay [5] deals with NCI-H226.
The subject of assay [6] is PC-3.
In assay [7] the test system is HCT-15.
Assay [8] deals with BT-549.
The test system of assay [9] is HOP-92.
Assay [10] deals with SK-MEL-2.
The test system of assay [11] is U-251.
The test system of assay [12] is A549.
Assay [13] has as its system HCT-116.
For assay [14], the system named is SF-268.
In assay [15] the test system is HT-29.
Assay [16] relates to SN12C.
The subject of assay [17] is HL-60.
Assay [18] has as its system SK-MEL-5.
Assay [19] deals with SNB-75.
For assay [20], the system named is HOP-62.

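Five compound concentrations were applied to cells in 96-well plates for 48 hours; endpoints were derived by simple linear interpolation of the resulting dose-response curve. GI50: concentration for 50% inhibition of growth.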 Calls of active or inactive are those of the source. No stated cut-off is given here; in the data, active = GI50 up to about 1.1 µM and inactive = higher. Some results are limits rather than exact numbers.

As for `CCOS(C)(=O)=O` [METHANESULFONIC ACID ETHYL ESTER], the GI50 in [1], in assay [2], in assay [3], in assay [4], in assay [5] and in [6] was > 100 µM (inactive) throughout. Further, the GI50 in [7] is over 100 µM; in [8], > 100 µM (inactive); in assay [9], 17 µM (inactive); in assay [10] it was > 100 µM (inactive); in [11] it was > 100 µM (inactive); in [12], > 100 µM (inactive). For the same compound, the GI50 in assay [13], in assay [14], in assay [15], in [16], in assay [17] and in assay [18] was > 100 µM (inactive) throughout.

Take `Nc1nc(-c2cccs2)cs1`: the GI50 was 79.1 µM (inactive) in assay [1]; > 100 µM (inactive) in assay [2]; > 100 µM (inactive) in assay [3]; > 100 µM (inactive) in assay [4]; > 100 µM (inactive) in assay [19]; > 100 µM (inactive) in assay [20]. The GI50 in [6] was 67.9 µM (inactive); in assay [7], 83.4 µM; in assay [8] it was 95.5 µM (inactive); in [9], 26.4 µM (inactive); in assay [10], > 100 µM (inactive); in assay [11], 71.3 µM (inactive). The GI50 in assay [12] was 58.6 µM (inactive); in assay [13], 56.8 µM (inactive); in [14], > 100 µM (inactive); in [15] it was > 100 µM (inactive); in assay [16], > 100 µM (inactive); in [17] it was > 100 µM (inactive). Besides, the GI50 in assay [18] is 73.3 µM (inactive).

With `Cc1cc2c(SCc3ccccc3Cl)nc(N)nc2nc1C`, the GI50 in assay [1], in assay [2], in [3], in assay [4], in assay [19] and in assay [20] was > 100 µM (inactive) each time. The GI50 in assay [6] is > 100 µM (inactive); in assay [7], over 100 µM; in assay [8], > 100 µM (inactive); in assay [9] it was 62.4 µM (inactive); in assay [10] it was > 100 µM (inactive); in [11], > 100 µM (inactive). Moreover, the GI50 is > 100 µM (inactive) in assay [12]; > 100 µM (inactive) in assay [13]; 65.5 µM (inactive) in [14]; > 100 µM (inactive) in [15]; > 100 µM (inactive) in assay [16]; > 100 µM (inactive) in assay [17]. The GI50 in assay [18] was > 100 µM (inactive).

As for `O=[N+]([O-])c1ccc(C2c3c(O)nc(S)nc3Oc3nc(S)nc(O)c32)cc1`, the GI50 in [1], in [2], in [3], in assay [4], in assay [5] and in [20] was > 100 µM (inactive) throughout. For the same compound, the GI50 was > 100 µM (inactive) in [6]; over 100 µM in [7]; > 100 µM (inactive) in [8]; > 100 µM (inactive) in assay [9]; > 100 µM (inactive) in [10]; > 100 µM (inactive) in [11]. Also, the GI50 in assay [12], in assay [13], in assay [15], in [16], in assay [17] and in assay [18] was > 100 µM (inactive) in each case.

For `O=C1NC(N2CCOCC2)=N/C1=C\c1ccc(O)cc1`, the GI50 in [1] is > 100 µM (inactive); in assay [2] it was > 100 µM (inactive); in assay [3] it was > 100 µM (inactive); in [4], > 100 µM (inactive); in assay [5], > 100 µM (inactive); in assay [19], 15.7 µM (inactive). The GI50 in [20] was > 100 µM (inactive); in assay [6], > 100 µM (inactive); in [7] it was over 100 µM; in assay [8], > 100 µM (inactive); in assay [9], > 100 µM (inactive); in [10], > 100 µM (inactive). The GI50 in assay [11], in [12], in assay [13], in [14], in assay [15] and in assay [16] was > 100 µM (inactive) in each case. The GI50 in assay [17] was > 100 µM (inactive).

As for `S=C(NN=C1NCCCCN1)Nc1ccc(Cl)cc1`, the GI50 in assay [1] is 11.7 µM (inactive); in [2] it was 77.6 µM (inactive); in assay [3], 31 µM (inactive); in assay [4] it was 25.4 µM (inactive); in [5], > 100 µM (inactive); in [19], 23.8 µM (inactive). For the same compound, the GI50 was 11 µM (inactive) in assay [20]; 13.9 µM (inactive) in [6]; 6.4 µM in [7]; 64.3 µM (inactive) in assay [8]; 29.8 µM (inactive) in [9]; 22.3 µM (inactive) in [10]. The GI50 in assay [11] was 7.71 µM (inactive); in assay [12], 11.8 µM (inactive); in assay [13], 7.52 µM (inactive); in [14] it was 14.4 µM (inactive); in [15] it was 16.2 µM (inactive); in [17], 8.18 µM (inactive). For the same compound, in assay [18], the GI50 was 5.36 µM (inactive).

Turning to `CCCSc1ccc2[nH]c(N3C(=O)/C(=C/c4ccccc4)N=C3c3ccccc3)cc2c1`, the GI50 in assay [1] was 20.4 µM (inactive); in assay [2] it was 41.4 µM (inactive); in assay [3], 32.4 µM (inactive); in assay [4], 18.7 µM (inactive); in assay [19], 40.6 µM (inactive); in assay [6], 23.7 µM (inactive). The GI50 was 19.2 µM in assay [7]; 19.9 µM (inactive) in [8]; > 50 µM (inactive) in [9]; 0.391 µM (active) in assay [10]; 19.5 µM (inactive) in assay [12]; 22.4 µM (inactive) in assay [13]. Further, the GI50 was 18.4 µM (inactive) in assay [14]; 16.7 µM (inactive) in assay [15]; 30.9 µM (inactive) in assay [16]; 12.1 µM (inactive) in assay [17]; 14.2 µM (inactive) in assay [18].

`Cc1ccc(/S(Cc2ccccc2)=N\S(=O)(=O)c2ccc(C)cc2)cc1` (stereo not given): the GI50 in [2], in assay [3], in assay [4], in [5], in [20] and in assay [6] was > 100 µM (inactive) each time. Also, the GI50 in [7] is 95.1 µM; in assay [8], > 100 µM (inactive); in assay [9], > 100 µM (inactive); in assay [11], > 100 µM (inactive); in assay [12], > 100 µM (inactive); in [13], > 100 µM (inactive). For the same compound, the GI50 in assay [14], in assay [15], in assay [16] and in assay [17] was > 100 µM (inactive) in each case.

For the compound `CC(C)=CC1C(COC(=O)c2cc3c(cc2Cl)OCO3)C1(C)C` (stereo not given), the GI50 in [1] was 22.3 µM (inactive); in assay [2] it was 95.7 µM (inactive); in [3], 38.8 µM (inactive); in assay [4] it was 33.1 µM (inactive); in [5], 42.4 µM (inactive); in assay [20] it was 38.3 µM (inactive). Further, the GI50 in [6] is 35.5 µM (inactive); in assay [7] it was 29 µM; in assay [8] it was 33 µM (inactive); in assay [9], 23.8 µM (inactive); in [10], 18.6 µM (inactive); in [11], 26.8 µM (inactive). In addition, the GI50 in assay [12] was 34.2 µM (inactive); in assay [13], 33.4 µM (inactive); in assay [14] it was 19.3 µM (inactive); in assay [15] it was 33 µM (inactive); in assay [16] it was 39.5 µM (inactive); in assay [17], 20.9 µM (inactive). In addition, the GI50 in assay [18] is 20 µM (inactive).

For `NNC(=O)c1cc([N+](=O)[O-])ccc1NC(=O)C12CC3CC(CC(C3)C1)C2`, the GI50 was 2.93 µM (inactive) in [1]; 2.98 µM (inactive) in assay [2]; 7.74 µM (inactive) in [4]; 4.62 µM (inactive) in [5]; 16.3 µM (inactive) in [20]; 13 µM (inactive) in assay [6]. For the same compound, the GI50 in assay [7] was 0.635 µM; in [8], 26.6 µM (inactive); in assay [9], 12.9 µM (inactive); in [11], 6.92 µM (inactive); in assay [12], 17.8 µM (inactive); in [13], 7.74 µM (inactive). Moreover, the GI50 in [14] was 3.82 µM (inactive); in assay [15] it was 25.8 µM (inactive); in assay [16], 8.63 µM (inactive); in assay [17] it was 3.09 µM (inactive); in [18], 19.2 µM (inactive).

In the case of `Cc1cn2c(C)csc2c1P(=O)(OC(C)C)OC(C)C`, the GI50 in assay [1], in [2], in [3], in assay [4], in assay [19] and in assay [20] was > 100 µM (inactive) in each case. In addition, the GI50 is > 100 µM (inactive) in assay [6]; over 100 µM in [7]; > 100 µM (inactive) in [8]; > 100 µM (inactive) in assay [9]; > 100 µM (inactive) in assay [10]; > 100 µM (inactive) in assay [11]. The GI50 in assay [12], in [13], in assay [14], in assay [15], in assay [16] and in assay [17] was > 100 µM (inactive) in each case. In addition, the GI50 in assay [18] was > 100 µM (inactive).
